In patent publication US20030073731A1, “Compositions and methods of the use thereof achiral analogues of CC-1065 and the duocarmycins” (priority 2000, published 2003):
Read-outs that look alike come from different tables or passages of the source.

How the values were obtained:
SR = assay: cells; type: cell-based, human
BT-549 [1] = tested on: BT-549
[2] = tested on: PC3 (human prostate cancer cells); assay: cells; type: cell-based
Method: (§1) Cells were seeded in 96-well microtiter plates at densities of 1000 cells/well. The optimal seeding density was determined to ensure exponential growth in control wells throughout the experimental period and to obtain a linear relationship between absorbance at 492 nm and cell number when analyzed by the sulforhodamine B (SRB) assay (43). 24 hours after seeding the cells were incubated for 1 hour or continuously for 3 days with the drugs (concentration range 0.01 to 500 pM). The cells were washed once and then incubated in drug free medium for 6 days. At the end of the incubation cell growth was determined by the SRB assay, which quantifies viable cells by measuring their total cellular protein content. […] Similar studies were conducted against the growth of PC3 (human prostate cancer cells) and MCF-7 (human breast cancer cells).

ACHN [3] = tested on: ACHN
OVCAR-5 = type: cell-based, human
IGROV1 = assay: cells; type: cell-based, human
HS 578T [4] = tested on: HS 578T
HCT-116 [5] = tested on: HCT-116
CAKI-1 [6] = tested on: CAKI-1
MCF7/ADR-RES = assay: cells; type: cell-based, human
LOX IMVI = assay: cells; conditions: Homo sapiens
OVCAR-3 = assay: cells; conditions: Homo sapiens
ACHN [7] = assay: cells; conditions: Homo sapiens
HCT-116 [8] = assay: cells; conditions: Homo sapiens
KM12 = assay: cells; conditions: Homo sapiens
SF-539 = assay: cells; conditions: Homo sapiens
[9] = tested on: MCF-7 (human breast cancer cells); assay: cells; type: cell-based
Method: as §1

HS 578T [10] = assay: cells; conditions: Homo sapiens
BT-549 [11] = assay: cells; conditions: Homo sapiens
CAKI-1 [12] = assay: cells; conditions: Homo sapiens
MDA-MB-435 = assay: cells; conditions: Homo sapiens
COLO 205 = assay: NCI in-vitro cytotoxicity screen, Colon Cancer panel; type: cell-based; conditions: Homo sapiens
Method: The compounds of this invention were also tested against the panel of 60 human cancer cell lines at the National Cancer Institute, Bethesda, Md. […] The cytotoxicity studies were conducted using a 48 hour exposure, and measuring the optical density of sulforhodamine B-derived color.

SNB-75 = assay: cells; conditions: Homo sapiens
UACC-62 = assay: cells; conditions: Homo sapiens

4-(2-Chloroethyl)-3-[5-(5-benzofuran-2-carboxamido)indole-2-carboxamido]phenol [Compound 1]
GI50 (UO-31): 3000 nM | TGI (UO-31): 6.38E-06 Molar | GI50 (EKVX): 1780 nM | TGI (EKVX): 4.41E-06 Molar | GI50 (SR): 852 nM | TGI (SR): 8.12E-06 Molar | GI50 (BT-549 [1]): 3600 nM | TGI (BT-549 [1]): 2.05E-05 Molar | GI50 (SNB-19): 3530 nM | TGI (SNB-19): 1.38E-05 Molar | GI50 (SF-295): 2320 nM | TGI (SF-295): 6.46E-06 Molar | IC50 ([2]; PC3, Continuous exposure): 3000 nM | GI50 (HCC-2998): 1760 nM | TGI (HCC-2998): 3.56E-06 Molar | GI50 (ACHN [3]): 1530 nM | TGI (ACHN [3]): 5.55E-06 Molar | GI50 (SK-MEL-5): 1730 nM | TGI (SK-MEL-5): 3.34E-06 Molar | GI50 (OVCAR-5): 2280 nM | TGI (OVCAR-5): 5.80E-06 Molar | GI50 (HCT-15): 1910 nM | TGI (HCT-15): 4.89E-06 Molar | GI50 (NCI-H522): 933 nM | TGI (NCI-H522): 3.00E-06 Molar | GI50 (IGROV1): 1500 nM | TGI (IGROV1): 3.41E-06 Molar | GI50 (K-562): 2880 nM | TGI (K-562): 9.59E-06 Molar | GI50 (SK-MEL-2): 1320 nM | TGI (SK-MEL-2): 2.67E-06 Molar | GI50 (HS 578T [4]): 11800 nM | TGI (HS 578T [4]): 3.96E-06 Molar | GI50 (HOP-92): 2620 nM | GI50 (HCT-116 [5]): 1940 nM | TGI (HCT-116 [5]): 5.73E-06 Molar | GI50 (U251): 2410 nM | TGI (U251): 1.23E-05 Molar | GI50 (HOP-62): 453 nM | TGI (HOP-62): 3.07E-06 Molar | GI50 (CAKI-1 [6]): 2300 nM | TGI (CAKI-1 [6]): 7.19E-06 Molar | GI50 (RPMI-8226): 1860 nM | TGI (RPMI-8226): 5.59E-06 Molar | GI50 (MCF7/ADR-RES; MCF7/ADR-RES): 1650 nM | TGI (MCF7/ADR-RES; MCF7/ADR-RES): 3.79E-06 Molar | Percent Growth (MCF7/ADR-RES; MCF7/ADR-RES, Log10 Concentration (Molar) −4.0): −55% | Percent Growth (MCF7/ADR-RES; MCF7/ADR-RES, Log10 Concentration (Molar) −7.0): 97% | GI50 (MDA-N): 2280 nM | TGI (MDA-N): 5.47E-06 Molar

COC(=O)c1[nH]c2c(O)cc(NC(=O)c3cc4cc(OC)c(OC)c(OC)c4[nH]3)c(CCCl)c2c1C(=O)OC [Compound 22, Dimethyl 4-(2-chloroethyl)-7-hydroxy-5-(5,6,7-trimethoxyindole-2-carboxamido)indole-2,3-dicarboxylate]
GI50 (LOX IMVI): 81.7 nM | CC50 (LOX IMVI; read-out: LC50): 25600 nM | GI50 (SR; Homo sapiens, SR, SB): 5.6 nM | GI50 (OVCAR-3; OVCAR-3): 139 nM | CC50 (OVCAR-3; OVCAR-3, read-out: LC50): 23000 nM | IC50 ([2]; Homo sapiens, PC3, 1 hour exposure): 350 nM | IC50 ([2]; Homo sapiens, PC3, Continuous exposure): 50 nM | GI50 (ACHN [7]): 44.6 nM | CC50 (ACHN [7]; read-out: LC50): > 50000 nM | GI50 (HCT-116 [8]; HCT-116): 65.6 nM | CC50 (HCT-116 [8]; HCT-116, read-out: LC50): 33200 nM | GI50 (KM12; KM12): 87.4 nM | CC50 (KM12; KM12, read-out: LC50): 474 nM | GI50 (IGROV1; Homo sapiens, IGROV-1, IGROV1): 62.1 nM | GI50 (SF-539; SF-539): 80.4 nM | CC50 (SF-539; SF-539, read-out: LC50): 608 nM | IC50 ([9]; MCF7, MCF-7, 1 hour exposure): 970 nM | IC50 ([9]; MCF7, MCF-7, Continuous exposure): 130 nM | GI50 (HS 578T [10]): 138 nM | CC50 (HS 578T [10]; read-out: LC50): 946 nM | GI50 (BT-549 [11]; BT-549): 329 nM | CC50 (BT-549 [11]; BT-549, read-out: LC50): > 50000 nM | TGI (HOP-92; HOP-92): 2.57E−07 Molar | GI50 (CAKI-1 [12]; CAKI-1): 147 nM | CC50 (CAKI-1 [12]; CAKI-1, read-out: LC50): > 50000 nM | GI50 (MDA-MB-435; MDA-MB-435): 137 nM | CC50 (MDA-MB-435; MDA-MB-435, read-out: LC50): > 50000 nM | GI50 (COLO 205; COLO 205): 233 nM | CC50 (COLO 205; COLO 205, read-out: LC50): > 50000 nM | GI50 (SNB-75; SNB-75): 62.8 nM | CC50 (SNB-75; SNB-75, read-out: LC50): 711 nM | GI50 (MCF7/ADR-RES; Homo sapiens, NCI/ADR-RES): 137 nM | GI50 (UACC-62; UACC-62): 78.2 nM | CC50 (UACC-62; UACC-62, read-out: LC50): 436 nM
